According to article PMC12217679 (Scientific Reports, 2025):

What was measured:
cholesterol metabolism = settings: cited from earlier work
DPP4 = settings: read-out: dissociation constant (Kd) with DPP4; cited from earlier work
[1] = molecular target: T1, human intestinal alkaline phosphatase (hIAP) (Homo sapiens, UniProt P09923); assay: SPR competition of IIAEK binding to hIAP by PLP; settings: IIAEK 297 μM, PLP 0, 1000 and 2000 μM, HBS-N pH 7.4
T1 sequence (P09923 20-503 limits assumed): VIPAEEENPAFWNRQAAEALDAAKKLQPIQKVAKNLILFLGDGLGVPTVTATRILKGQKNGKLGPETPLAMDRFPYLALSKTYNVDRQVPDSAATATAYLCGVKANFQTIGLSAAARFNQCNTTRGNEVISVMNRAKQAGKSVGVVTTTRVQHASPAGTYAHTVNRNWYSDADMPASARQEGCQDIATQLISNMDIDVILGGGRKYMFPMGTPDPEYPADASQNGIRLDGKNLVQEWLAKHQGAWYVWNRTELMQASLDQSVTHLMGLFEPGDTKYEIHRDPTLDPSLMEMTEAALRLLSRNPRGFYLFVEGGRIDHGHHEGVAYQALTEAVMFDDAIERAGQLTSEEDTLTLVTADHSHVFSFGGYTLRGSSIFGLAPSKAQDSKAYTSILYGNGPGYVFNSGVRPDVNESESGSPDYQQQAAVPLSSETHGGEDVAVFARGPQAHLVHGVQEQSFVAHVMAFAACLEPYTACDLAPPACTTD

mouse liver = settings: cited from earlier work
hepatic NPC1L1 = settings: cited from earlier work

Row | Compound | improvement of cholesterol metabolism in animal studies (cholesterol metabolism) | other results
1 | VFVRN | effectively improve cholesterol metabolism | –
2 | GLP-1: DPP4 substrate | – | Kd (DPP4): 153 µM
3 | HIRL | effectively improve cholesterol metabolism | –
4 | Cc1ncc(COP(=O)(O)O)c(C=O)c1O [PLP, Pyridoxal 5′-phosphate] | – | competition with IIAEK for hIAP [1]: competes for the interaction between IIAEK and hIAP in a concentration-dependent manner
5 | VSEE | effectively improve cholesterol metabolism | –
6 | VAWWMY | effectively improve cholesterol metabolism | –
7 | VHVV | effectively improve cholesterol metabolism | –
8 | O=C1[C@H](CC[C@H](O)c2ccc(F)cc2)[C@@H](c2ccc(O)cc2)N1c1ccc(F)cc1 [ezetimibe] | – | hepatic mRNA levels of Hmgcr and Srebf2 (mouse liver): increasing hepatic mRNA levels of Hmgcr and Srebf2; liver cholesterol levels (mouse liver): decreases liver cholesterol levels; hepatic NPC1L1-induced hepatic lipids accumulation (hepatic NPC1L1): eliminated
9 | GEQQQPGM | effectively improve cholesterol metabolism | –
